{"source": "paper PMC6915728", "about": "(Nature Communications, 2019)", "key": {"[1]": {"system": "E. coli BW25113 overexpression strains (ASKA plasmids)", "assay": "Minimum inhibitory concentration (MIC), serial broth dilution, single-gene overexpression strains vs empty-vector control", "format": "cell-based, Escherichia coli", "conditions": "for Average relative change in MIC: mlaD overexpression strain relative to control (wild-type+empty vector), 3 replicates each, from optical density values of serial dilution plates, AMP in µg ml-1; for Relative MIC: broth dilution, MS medium, 100 µM IPTG, 30 °C, 20-24 h, OD600, 3 replicates", "method_in_brief": "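E. coli overexpression strains grown in MS medium with chloramphenicol, induced with 100 µM IPTG for 1 h at 30 °C, then about half-million cells inoculated into 12-step AMP dilutions (typically 1.2-fold steps). OD600 read after 20–24 h at 30 °C with shaking; triplicate strains compared with empty-vector control.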"}, "[2]": {"system": "AMP-evolved E. coli lines", "conditions": "ref Spohn et al 2019, cited from earlier work", "text": "Supplement 41467_2019_13618_MOESM13_ESM.xlsx, sheet \"Figure 6 and S15\" | column: A comprehensive dataset of antimicrobial susceptibility of AMP-adapted lines to antimicrobial peptides (AMPs)."}, "[3]": {"conditions": "overexpression strain mlaC, MIC of overexpression strain / MIC of empty-plasmid control"}, "[4]": {"conditions": "overexpression strain mlaD, MIC of the overexpression strain / MIC of the control strain (wild-type carrying the empty plasmid)"}}, "note": "Where two headings read alike, the source gives them in different places.", "data": [{"sequence": "GLRKRLRKFRNKIKEKLKKIGQKIQGFVPKLAPRTDY [CAP18, antimicrobial peptide, source rabbit; disrupts cell membrane; cluster C3]", "values": [{"measurement": "Average relative change in MIC", "setting": "[1]", "value": 1.86}, {"measurement": "Relative MIC", "setting": "[1]; overexpression strain hyfA, MIC of overexpression strain / MIC of empty-plasmid control", "value": 0.72}, {"measurement": "Relative MIC", "setting": "[1]; [3]", "value": 2.1}, {"measurement": "Relative MIC", "setting": "[1]; [4]", "value": 2.42}, {"measurement": "Relative MIC", "setting": "[1]; overexpression strain murA, MIC of overexpression strain / MIC of empty-plasmid control", "value": ">2.25"}, {"measurement": "Relative MIC", "setting": "[1]; overexpression strain narY, MIC of overexpression strain / MIC of empty-plasmid control", "value": 0.76}, {"measurement": "Relative MIC", "setting": "[1]; overexpression strain rpoH, MIC of overexpression strain / MIC of empty-plasmid control", "value": ">2.25"}, {"measurement": "Relative MIC", "setting": "[1]; overexpression strain uhpC, MIC of overexpression strain / MIC of empty-plasmid control", "value": 1.66}, {"measurement": "Relative MIC", "setting": "[1]; overexpression strain yhbJ, MIC of overexpression strain / MIC of empty-plasmid control", "value": ">2.25"}, {"measurement": "Relative MIC", "setting": "[1]; overexpression strain ytjB, MIC of overexpression strain / MIC of empty-plasmid control", "value": 1.72}]}, {"sequence": "RWCFRVCYRGICYRKCR [TPII, Tachyplesin II, antimicrobial peptide from Japanese horseshoe crab; disrupts cell membrane; cluster C1]", "values": [{"measurement": "Average relative change in MIC", "setting": "[1]", "value": 1.47}, {"measurement": "Relative MIC", "setting": "[1]; overexpression strain gadW, MIC of overexpression strain / MIC of empty-plasmid control", "value": 1}, {"measurement": "Relative MIC", "setting": "[1]; [3]", "value": 1}, {"measurement": "Relative MIC", "setting": "[1]; [4]", "value": 1.47}, {"measurement": "Relative MIC", "setting": "[1]; overexpression strain mzrA, MIC of overexpression strain / MIC of empty-plasmid control", "value": 1.27}, {"measurement": "Relative MIC", "setting": "[1]; overexpression strain nikB, MIC of overexpression strain / MIC of empty-plasmid control", "value": 0.8}, {"measurement": "Relative change in MIC (MIC of the AMP-adpated line / MIC of the ancestral strain)", "setting": "[2]; AMP-adapted line BAC5_3", "value": 1}, {"measurement": "Relative change in MIC (MIC of the AMP-adpated line / MIC of the ancestral strain)", "setting": "[2]; AMP-adapted line BAC5_5", "value": 1}, {"measurement": "Relative change in MIC (MIC of the AMP-adpated line / MIC of the ancestral strain)", "setting": "[2]; AMP-adapted line BAC5_7", "value": 1.1}, {"measurement": "Relative change in MIC (MIC of the AMP-adpated line / MIC of the ancestral strain)", "setting": "[2]; AMP-adapted line BAC5_10", "value": 1.1}, {"measurement": "Relative change in MIC (MIC of the AMP-adpated line / MIC of the ancestral strain)", "setting": "[2]; AMP-adapted line CAP18_2", "value": 1.1}, {"measurement": "Relative change in MIC (MIC of the AMP-adpated line / MIC of the ancestral strain)", "setting": "[2]; AMP-adapted line CAP18_5", "value": 1}, {"measurement": "Relative change in MIC (MIC of the AMP-adpated line / MIC of the ancestral strain)", "setting": "[2]; AMP-adapted line CAP18_6", "value": 1}, {"measurement": "Relative change in MIC (MIC of the AMP-adpated line / MIC of the ancestral strain)", "setting": "[2]; AMP-adapted line CAP18_8", "value": 1.1}, {"measurement": "Relative change in MIC (MIC of the AMP-adpated line / MIC of the ancestral strain)", "setting": "[2]; AMP-adapted line CAP18_10", "value": 1}, {"measurement": "Relative change in MIC (MIC of the AMP-adpated line / MIC of the ancestral strain)", "setting": "[2]; AMP-adapted line HBD3_3", "value": 1.2}, {"measurement": "Relative change in MIC (MIC of the AMP-adpated line / MIC of the ancestral strain)", "setting": "[2]; AMP-adapted line HBD3_6", "value": 1.2}, {"measurement": "Relative change in MIC (MIC of the AMP-adpated line / MIC of the ancestral strain)", "setting": "[2]; AMP-adapted line HBD3_8", "value": 1.2}, {"measurement": "Relative change in MIC (MIC of the AMP-adpated line / MIC of the ancestral strain)", "setting": "[2]; AMP-adapted line HBD3_10", "value": 1.2}, {"measurement": "Relative change in MIC (MIC of the AMP-adpated line / MIC of the ancestral strain)", "setting": "[2]; AMP-adapted line LL37_1", "value": 1.1}, {"measurement": "Relative change in MIC (MIC of the AMP-adpated line / MIC of the ancestral strain)", "setting": "[2]; AMP-adapted line LL37_3", "value": 1.1}, {"measurement": "Relative change in MIC (MIC of the AMP-adpated line / MIC of the ancestral strain)", "setting": "[2]; AMP-adapted line LL37_6", "value": 1}, {"measurement": "Relative change in MIC (MIC of the AMP-adpated line / MIC of the ancestral strain)", "setting": "[2]; AMP-adapted line LL37_7", "value": 1}, {"measurement": "Relative change in MIC (MIC of the AMP-adpated line / MIC of the ancestral strain)", "setting": "[2]; AMP-adapted line LL37_10", "value": 1}, {"measurement": "Relative change in MIC (MIC of the AMP-adpated line / MIC of the ancestral strain)", "setting": "[2]; AMP-adapted line PEX_1", "value": 1.1}, {"measurement": "Relative change in MIC (MIC of the AMP-adpated line / MIC of the ancestral strain)", "setting": "[2]; AMP-adapted line PEX_4", "value": 1.2}, {"measurement": "Relative change in MIC (MIC of the AMP-adpated line / MIC of the ancestral strain)", "setting": "[2]; AMP-adapted line PEX_5", "value": 1.1}, {"measurement": "Relative change in MIC (MIC of the AMP-adpated line / MIC of the ancestral strain)", "setting": "[2]; AMP-adapted line PEX_6", "value": 1}, {"measurement": "Relative change in MIC (MIC of the AMP-adpated line / MIC of the ancestral strain)", "setting": "[2]; AMP-adapted line PEX_7", "value": 1}, {"measurement": "Relative change in MIC (MIC of the AMP-adpated line / MIC of the ancestral strain)", "setting": "[2]; AMP-adapted line PR39_1", "value": 1}, {"measurement": "Relative change in MIC (MIC of the AMP-adpated line / MIC of the ancestral strain)", "setting": "[2]; AMP-adapted line PR39_2", "value": 0.9}, {"measurement": "Relative change in MIC (MIC of the AMP-adpated line / MIC of the ancestral strain)", "setting": "[2]; AMP-adapted line PR39_5", "value": 0.9}, {"measurement": "Relative change in MIC (MIC of the AMP-adpated line / MIC of the ancestral strain)", "setting": "[2]; AMP-adapted line PR39_7", "value": 0.9}, {"measurement": "Relative change in MIC (MIC of the AMP-adpated line / MIC of the ancestral strain)", "setting": "[2]; AMP-adapted line PR39_10", "value": 0.9}, {"measurement": "Relative change in MIC (MIC of the AMP-adpated line / MIC of the ancestral strain)", "setting": "[2]; AMP-adapted line PROA_2", "value": 1.1}, {"measurement": "Relative change in MIC (MIC of the AMP-adpated line / MIC of the ancestral strain)", "setting": "[2]; AMP-adapted line PROA_3", "value": 0.8}, {"measurement": "Relative change in MIC (MIC of the AMP-adpated line / MIC of the ancestral strain)", "setting": "[2]; AMP-adapted line PROA_7", "value": 1}, {"measurement": "Relative change in MIC (MIC of the AMP-adpated line / MIC of the ancestral strain)", "setting": "[2]; AMP-adapted line PROA_8", "value": 1}, {"measurement": "Relative change in MIC (MIC of the AMP-adpated line / MIC of the ancestral strain)", "setting": "[2]; AMP-adapted line PROA_9", "value": 1.1}, {"measurement": "Relative change in MIC (MIC of the AMP-adpated line / MIC of the ancestral strain)", "setting": "[2]; AMP-adapted line PXB_2", "value": 1.1}, {"measurement": "Relative change in MIC (MIC of the AMP-adpated line / MIC of the ancestral strain)", "setting": "[2]; AMP-adapted line PXB_5", "value": 1}, {"measurement": "Relative change in MIC (MIC of the AMP-adpated line / MIC of the ancestral strain)", "setting": "[2]; AMP-adapted line PXB_6", "value": 1.1}, {"measurement": "Relative change in MIC (MIC of the AMP-adpated line / MIC of the ancestral strain)", "setting": "[2]; AMP-adapted line PXB_8", "value": 1}, {"measurement": "Relative change in MIC (MIC of the AMP-adpated line / MIC of the ancestral strain)", "setting": "[2]; AMP-adapted line PXB_10", "value": 1.1}]}]}
